Results as given in US7348336B2 (Sanofi-Aventis Deutschland GmbH, priority 2000, dated 2008).
Structures can show the parent of a compound that is named as a salt. Where two headings read alike, the source gives them in different places.

Experiments:
IκBα-kinase complex = molecular target: T1, IκBα-kinase complex (Homo sapiens, UniProt O14920+O15111); test: IkB-Kinase ELISA; assay type: biochemical;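 also: substrate phosphopeptide captured on Protein-A plates, detected with Streptavidin-HRP and TMB absorbance at 450 nm, activity read from a synthetic phosphopeptide standard curve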
T1 construct: endogenous in cells; host or cells: HeLa S3 cell extract, S100 fraction; ammonium sulfate precipitation and Superose-6 size exclusion
T1 sequence (O14920 whole entry): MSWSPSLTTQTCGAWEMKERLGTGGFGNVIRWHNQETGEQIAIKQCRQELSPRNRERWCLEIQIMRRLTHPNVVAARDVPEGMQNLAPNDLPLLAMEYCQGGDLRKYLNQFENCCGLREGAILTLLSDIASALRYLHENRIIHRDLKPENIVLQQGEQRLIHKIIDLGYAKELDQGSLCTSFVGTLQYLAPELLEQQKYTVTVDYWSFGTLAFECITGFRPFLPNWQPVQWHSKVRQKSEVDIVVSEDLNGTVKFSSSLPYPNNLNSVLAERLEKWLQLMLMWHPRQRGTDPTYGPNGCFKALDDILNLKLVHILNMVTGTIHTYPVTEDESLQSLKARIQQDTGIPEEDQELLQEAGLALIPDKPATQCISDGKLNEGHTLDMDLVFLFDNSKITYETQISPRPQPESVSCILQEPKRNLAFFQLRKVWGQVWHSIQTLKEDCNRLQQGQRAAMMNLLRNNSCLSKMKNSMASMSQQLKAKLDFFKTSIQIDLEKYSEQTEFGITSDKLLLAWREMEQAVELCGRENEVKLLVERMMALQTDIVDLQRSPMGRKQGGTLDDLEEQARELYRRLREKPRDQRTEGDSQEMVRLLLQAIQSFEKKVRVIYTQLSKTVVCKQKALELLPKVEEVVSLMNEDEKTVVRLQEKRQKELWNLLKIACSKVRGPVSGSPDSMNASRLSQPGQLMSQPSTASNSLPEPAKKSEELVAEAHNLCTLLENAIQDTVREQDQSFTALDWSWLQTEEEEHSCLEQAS
T1 sequence (O15111 whole entry): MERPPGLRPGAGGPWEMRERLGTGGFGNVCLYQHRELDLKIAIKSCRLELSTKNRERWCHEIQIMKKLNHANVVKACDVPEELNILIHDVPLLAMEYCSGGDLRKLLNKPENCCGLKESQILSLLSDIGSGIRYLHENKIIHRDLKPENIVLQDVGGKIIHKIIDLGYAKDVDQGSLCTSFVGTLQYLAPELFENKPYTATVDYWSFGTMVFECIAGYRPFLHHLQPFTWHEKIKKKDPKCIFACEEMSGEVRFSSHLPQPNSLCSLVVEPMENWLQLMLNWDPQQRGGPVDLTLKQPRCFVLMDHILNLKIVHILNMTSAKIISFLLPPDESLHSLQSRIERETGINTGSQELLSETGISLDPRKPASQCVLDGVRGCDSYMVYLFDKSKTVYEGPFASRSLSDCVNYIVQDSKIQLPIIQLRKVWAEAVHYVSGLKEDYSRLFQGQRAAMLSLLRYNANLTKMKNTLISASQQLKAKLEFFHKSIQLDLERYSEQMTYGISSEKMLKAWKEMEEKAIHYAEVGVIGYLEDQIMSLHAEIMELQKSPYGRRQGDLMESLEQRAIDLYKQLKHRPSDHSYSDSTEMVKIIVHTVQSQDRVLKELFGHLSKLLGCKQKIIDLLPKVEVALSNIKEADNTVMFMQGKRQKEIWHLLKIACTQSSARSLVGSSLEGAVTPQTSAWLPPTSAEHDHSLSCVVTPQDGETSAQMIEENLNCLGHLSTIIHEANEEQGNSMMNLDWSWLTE
T1 sequence (Q9Y6K9 whole entry partner): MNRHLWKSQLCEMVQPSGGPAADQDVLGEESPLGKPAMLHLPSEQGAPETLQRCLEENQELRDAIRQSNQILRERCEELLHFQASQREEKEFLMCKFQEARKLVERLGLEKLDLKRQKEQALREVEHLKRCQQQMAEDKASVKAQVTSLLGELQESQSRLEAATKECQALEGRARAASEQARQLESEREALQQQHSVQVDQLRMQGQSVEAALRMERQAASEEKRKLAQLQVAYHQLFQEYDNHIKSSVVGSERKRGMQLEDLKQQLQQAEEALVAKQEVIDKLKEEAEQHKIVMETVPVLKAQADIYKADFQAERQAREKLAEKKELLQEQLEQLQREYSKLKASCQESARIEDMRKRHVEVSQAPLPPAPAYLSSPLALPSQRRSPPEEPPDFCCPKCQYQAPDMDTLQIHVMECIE

[1] = test system: cardiac allograft (BALB/c->C57BL/6 or B6/129); test: Mouse heterotopic cardiac transplant model; assay type: in vivo; details: oral, 25 mg/kg/day for 14 days, starting at transplantation; mean±SD
Text: Mouse Heterotopic Cardiac Transplant Model
In the mouse heterotopic cardiac transplant model across full histocompatibility barriers (BALB/c->C57BL/6 or B6/129), graft survival is typically limited to 7.3±0.4 days (mean±SD, n0 allografts) (see for example in Hancock W W, Sayegh M H, Zheng X G, Peach R, Linsley P S, Turka L A. Costimulatory function and expression of CD40-ligand, CD80 and CD86 or in vascularized murine cardiac allograft rejection. Proc Natl Acad Sci (USA) 93, 1996, 13967-13972; and Hancock W W, Buelow R, Sayegh M H, Turka L A. Antibody-induced transplant arteriosclerosis is prevented by graft expression of anti-oxidant and anti-apoptotic genes. Nature Med 4, 1998, 1392-1396).
The effects of oral administration of the compounds according to examples 49 and 60 were tested using 25 mg/kg/day for 14 days, starting at transplantation in said animal model. Whereas grafts in animals receiving the carrier, methyl-cellulose, rejected by 7 days (6.7±0.8), grafts in compound 49-treated mice survived around 15 days (15.3±0.6), and grafts in those given compound 60 survived for 20 days (20±1). Current immunosuppressive therapies used in transplantation have limited efficacy and/or considerable toxicity.

[2] = activated IκBα kinase complex from HeLa S3 cell extracts, ELISA, read-out: IkB-kinase IC50

Question: With `O=C(Nc1cc(Cl)cc2c1[nH]c1cnccc12)c1ccc(F)cc1` [Example 49, trifluoroacetate] as the compound, how does the IC50 (IκBα-kinase complex; [2]) read?
Answer: Its IC50 is 220 nM.

Question: And the graft survival [1]?
Answer: The graft survival was 15.3 ± 0.6 days.

Question: `COc1c(Cl)cc2c([nH]c3cnccc32)c1NC(=O)c1ccc(Cl)nc1` [Example 118] was tested. Which IC50 (IκBα-kinase complex; [2]) did it give?
Answer: Its IC50 is 120 nM.

Question: `COc1c(Cl)cc2c([nH]c3cnccc32)c1NC(=O)c1ccno1` [Example 119] was tested. Which IC50 (IκBα-kinase complex; [2]) did it give?
Answer: Its IC50 is 600 nM.

Question: With `COc1c(Cl)cc2c([nH]c3cnccc32)c1NC(=O)c1ccc(F)c(F)c1` [Example 120] as the compound, how does the IC50 (IκBα-kinase complex; [2]) read?
Answer: Its IC50 is 400 nM.

Question: How did the IC50 (IκBα-kinase complex; IkB-kinase, unit inferred, read-out: IC50) turn out when `Nc1ccc(C(=O)Nc2cc(Cl)cc3c2[nH]c2cnccc23)cn1` [Example 121] was run?
Answer: Its IC50 is 1700 nM.
